Reference: patent US20210155644A1, “CYCLOPENTENYL PURINE DERIVATIVE OR SALT THEREOF” (Fujifilm Corporation, priority 2018, published 2021)

test system: adenovirus type 6 (ADV6); assay: Evaluation of anti-adenovirus activity: CRL-11516 cells infected with ADV6, anti-hexon staining, count of stained cells; format: cell-based; conditions: CRL-11516 cells infected with ADV6, 48 hours culture, concentration reducing dark brown-stained cells by 50%; read-out: Anti-AdV activity EC50
Method: A system in which CRL-11516 cells (available from ATCC) were infected with adenovirus type 6 (hereinafter, referred to as ADV6) was constructed, and a test for evaluating the anti-adenovirus activity of the compound according to the embodiment of the present invention and the compound of Comparative Example was carried out using the system. The test for evaluating the anti-adenovirus activity was carried out according to the method described below.
CRL-11516 cells were added to a 96-well plate at a cell density of 1×10^4 cells/well and cultured at 37° C. for 24 hours. After the culture was completed, the cell culture liquid was removed, and a serial dilution (100 μL) of the compound according to the embodiment of the present invention or the compound of Comparative Example was added. ADV6 (corresponding to 50TCID50) was added thereto, followed by culturing at 37° C. for 48 hours.
After the culture was completed, the infected cells were stained using Adeno-X Rapid Titer Kit (manufactured by Takara Bio Inc.). 100% methanol was added thereto and the cells were fixed at −20° C. for 10 minutes. The plate was washed three times with phosphate buffered saline (hereinafter, referred to as PBS) and then Mouse Anti-Hexon Antibody was added thereto, followed by incubation at 37° C. for 1 hour. After the incubation was completed, the plate was washed three times with PBS, and Rat Anti-Mouse Antibody was added thereto, followed by incubation at 37° C. for 1 hour. After the incubation was completed, a mixed staining solution of Stable Peroxidase Buffer:DAB Substrate=10:1 was added thereto, followed by incubation at room temperature for 10 minutes for staining of the cells.
The number of dark brown-stained cells was counted under a microscope, and the concentration of the test drug that reduces the dark brown-stained cells by 50% was defined as EC50. EC50 values were calculated for the triplicate test results, and a mean value and a standard deviation thereof were determined.

SMILES | EC50 [nM]
COC(=O)[C@H](C)NP(=O)(OC[C@@H]1C=C[C@H](n2cnc3c(OC)nc(N)nc32)C1)Oc1ccccc1 (stereo partly drawn) [Example 4-2-2, methyl ((((1 S,4R)-4-(2-amino-6-methoxy-9H-purin-9-yl)cyclopent-2-en-1-yl)methoxy)(phenoxy)phosphoryl)-L-alaninate] | 10 to 100
COc1nc(N)nc2c1ncn2[C@H]1C=C[C@@H](COP(=O)(N[C@@H](C)C(=O)OC(C)C)Oc2ccccc2)C1 (stereo partly drawn) [Example 4-4-1, Isopropyl ((((1 S,4R)-4-(2-amino-6-methoxy-9H-purin-9-yl)cyclopent-2-en-1-yl)methoxy)(phenoxy)phosphoryl)-L-alaninate] | 10 to 100
COc1nc(N)nc2c1ncn2[C@H]1C=C[C@@H](COP(=O)(N[C@@H](C)C(=O)OC(C)C)Oc2ccc(Cl)cc2)C1 (single isomer, unassigned) [Example 4-8-2] | < 10
COC(=O)[C@H](C)NP(=O)(OCCSC(=O)C(C)(C)C)OC[C@@H]1C=C[C@H](n2cnc3c(OC)nc(N)nc32)C1 (stereo partly drawn) [Example 4-6-2, ((((1S,4R)-4-(2-amino-6-methoxy-9H-purin-9-yl)cyclopent-2-en-1-yl)methoxy)(2-(pivaloylthio)ethoxy)phosphoryl)-L-alaninate] | < 10
COc1nc(N)nc2c1ncn2[C@H]1C=C[C@@H](COP(=O)(N[C@@H](CC(C)C)C(=O)OC(C)C)Oc2ccccc2)C1 (single isomer, unassigned) [Example 7-1-2] | 100 to 1000
COC(=O)[C@H](C)NP(=O)(OC[C@@H]1C=C[C@H](n2cnc3c(Cl)nc(N)nc32)C1)Oc1ccc(Cl)cc1 (stereo partly drawn) [Example 4-5-2, methyl ((((1 S,4R)-4-(2-amino-6-chloro-9H-purin-9-yl)cyclopent-2-en-1-yl)methoxy)(4-chlorophenoxy)phosphoryl)-L-alaninate] | 10 to 100
COc1nc(N)nc2c1ncn2[C@H]1C=C[C@@H](COP(=O)(N[C@@H](C)C(=O)OC(C)C)Oc2cccc3ccccc23)C1 (some centres unmarked) [Example 6-2-25] | < 10
COc1nc(N)nc2c1ncn2[C@H]1C=C[C@@H](COP(=O)(N[C@@H](C)C(=O)OC(C)C)Oc2ccc3c(c2)OCO3)C1 (stereo partly drawn) [Example 6-2-21, isopropyl ((((1S,4R)-4-(2-amino-6-methoxy-9H-purin-9-yl)cyclopent-2-en-1-yl)methoxy)(benzo[d][1,3]dioxolo-5-yloxy)phosphoryl)-L-alaninate] | 10 to 100
COc1nc(N)nc2c1ncn2[C@H]1C=C[C@@H](COP(=O)(N[C@@H](C)C(=O)OC(C)C)Oc2ccccc2)C1 (stereo partly drawn) [Example 2-2-12, isopropyl ((((1S,4R)-4-(2-amino-6-methoxy-9H-purin-9-yl)cyclopent-2-en-1-yl)methoxy)(phenoxy)phosphoryl)-L-alaninate] | 100 to 1000

same assay, conditions: Human mastadenovirus C, 48 h, CRL-11516 cells infected with ADV6, 48 hours culture, concentration reducing dark brown-stained cells by 50%; read-out: Anti-AdV activity EC50

SMILES | EC50 [nM]
COC(=O)[C@H](C)NP(=O)(OC[C@@H]1C=C[C@H](n2cnc3c(OC)nc(N)nc32)C1)Oc1ccc(Cl)cc1 (stereo partly drawn) [Example 1-2-2, methyl ((((1S,4R)-4-(2-amino-6-methoxy-9H-purin-9-yl)cyclopent-2-en-1-yl)methoxy)(4-chlorophenoxy)phosphoryl)-L-alaninate] | < 10
CC(C)OC(=O)[C@H](C)NP(=O)(OC[C@@H]1C=C[C@H](n2cnc3c(Cl)nc(N)nc32)C1)Oc1ccc(Cl)cc1 (stereo partly drawn) [Example 1-2-70, isopropyl ((((1S,4R)-4-(2-amino-6-chloro-9H-purin-9-yl)cyclopent-2-en-1-yl)methoxy)(4-chlorophenoxy)phosphoryl)-L-alaninate] | 10 to 100
COc1nc(N)nc2c1ncn2[C@H]1C=C[C@@H](COP(=O)(N[C@@H](C)C(=O)OC(C)C)Oc2ccc(Cl)cc2)C1 (stereo partly drawn) [Example 1-2-72, isopropyl ((((1S,4R)-4-(2-amino-6-methoxy-9H-purin-9-yl)cyclopent-2-en-1-yl)methoxy)(4-chlorophenoxy)phosphoryl)-L-alaninate] | 10 to 100
CC(C)OC(=O)[C@H](C)N[P@](=O)(OC[C@@H]1C=C[C@H](n2cnc3c(OC4CCC4)nc(N)nc32)C1)Oc1ccccc1 [Example 2-2-36, Isopropyl ((S)-(((1S,4R)-4-(2-amino-6-cyclobutoxy-9H-purin-9-yl)cyclopent-2-en-1-yl)methoxy)(phenoxy)phosphoryl)-L-alaninate] | 100 to 1000
CCOc1nc(N)nc2c1ncn2[C@H]1C=C[C@@H](CO[P@@](=O)(N[C@@H](C)C(=O)OC(C)C)Oc2ccccc2)C1 [Example 2-2-18, Isopropyl ((S)-(((1S,4R)-4-(2-amino-6-ethoxy-9H-purin-9-yl)cyclopent-2-en-1-yl)methoxy) (phenoxy)phosphoryl)-L-alaninate] | 100 to 1000
CC(C)OC(=O)[C@H](C)N[P@@](=O)(OC[C@@H]1C=C[C@H](n2cnc3c(N4CCC4)nc(N)nc32)C1)Oc1ccccc1 [Example 2-2-37, isopropyl ((R)-(((1S,4R)-4-(2-amino-6-(azetidin-1-yl)-9H-purin-9-yl)cyclopent-2-en-1-yl)methoxy)(phenoxy)phosphoryl)-L-alaninate] | 10 to 100
COc1cccc(OP(=O)(N[C@@H](C)C(=O)OC(C)C)OC[C@@H]2C=C[C@H](n3cnc4c(OC)nc(N)nc43)C2)c1 (stereo partly drawn) [Example 6-2-7, isopropyl ((((1S,4R)-4-(2-amino-6-methoxy-9H-purin-9-yl)cyclopent-2-en-1-yl)methoxy)(3-methoxyphenoxy)phosphoryl)-L-alaninate] | 10 to 100
COC(=O)C(C)(C)NP(=O)(OC[C@@H]1C=C[C@H](n2cnc3c(OC)nc(N)nc32)C1)Oc1ccc(Br)cc1 (stereo partly drawn) [Example 1-2-49, Methyl 2-(((((1S,4R)-4-(2-amino-6-methoxy-9H-purin-9-yl)cyclopent-2-en-1-yl)methoxy)(4-bromophenoxy)phosphoryl)amino)-2-methylpropanoate] | < 10
CC(C)OC(=O)[C@H](C)N[P@](=O)(OC[C@@H]1C=C[C@H](n2cnc3c(OC(C)C)nc(N)nc32)C1)Oc1ccccc1 [Example 2-2-20, Isopropyl ((S)-(((1S,4R)-4-(2-amino-6-isopropoxy-9H-purin-9-yl)cyclopent-2-en-1-yl)methoxy) (phenoxy)phosphoryl)-L-alaninate] | 100 to 1000
CNc1nc(N)nc2c1ncn2[C@H]1C=C[C@@H](COP(=O)(N[C@@H](C)C(=O)OC)Oc2ccc(Br)cc2)C1 (stereo partly drawn) [Example 1-2-46, Methyl ((((1S,4R)-4-(2-amino-6-(methylamino)-9H-purin-9-yl)cyclopent-2-en-1-yl)methoxy)(4-bromophenoxy)phosphoryl)-L-alaninate] | < 10
COC(=O)[C@H](C)NP(=O)(OC[C@@H]1C=C[C@H](n2cnc3c(Cl)nc(N)nc32)C1)Oc1ccc(Cl)cc1 (stereo partly drawn) [Example 4-5-1, methyl ((((1 S,4R)-4-(2-amino-6-chloro-9H-purin-9-yl)cyclopent-2-en-1-yl)methoxy)(4-chlorophenoxy)phosphoryl)-L-alaninate] | < 10
CC(C)OC(=O)[C@H](C)N[P@@](=O)(OC[C@@H]1C=C[C@H](n2cnc3c(OC(C)C)nc(N)nc32)C1)Oc1ccccc1 [Example 2-2-19, isopropyl ((R)-(((1S,4R)-4-(2-amino-6-isopropoxy-9H-purin-9-yl)cyclopent-2-en-1-yl)methoxy)(phenoxy)phosphoryl)-L-alaninate] | 10 to 100
CC(C)OC(=O)[C@H](C)N[P@](=O)(OC[C@@H]1C=C[C@H](n2cnc3c(N(C)C)nc(N)nc32)C1)Oc1ccccc1 [Example 2-2-26, Isopropyl ((S)-(((1S,4R)-4-(2-amino-6-(dimethylamino)-9H-purin-9-yl)cyclopent-2-en-1-yl)methoxy) (phenoxy)phosphoryl)-L-alaninate] | 100 to 1000

same assay, conditions: Human mastadenovirus C, 48 h, read-out: Anti-AdV activity EC50, CRL-11516 cells infected with ADV6, 48 hours culture, concentration reducing dark brown-stained cells by 50%

SMILES | EC50 [nM]
COc1nc(N)nc2c1ncn2[C@H]1C=C[C@@H](COP(=O)(OCCSC(=O)C(C)(C)C)Oc2ccccc2)C1 (stereo partly drawn) [Example 4-7-1, S-(2-(((((1 S,4R)-4-(2-amino-6-methoxy-9H-purin-9-yl)cyclopent-2-en-1-yl)methoxy) (phenoxy)phosphoryl)oxy)ethyl) 2,2-dimethylpropanethioate] | 10 to 100

same assay, conditions: Human mastadenovirus C; CRL-11516 cells infected with ADV6, 48 hours culture, concentration reducing dark brown-stained cells by 50%; read-out: Anti-AdV activity EC50

EC50 [nM] | SMILES
100 to 1000 | COC(=O)[C@H](C)NP(=O)(OCCSC(=O)C(C)(C)CO)OC[C@@H]1C=C[C@H](n2cnc3c(Cl)nc(N)nc32)C1 (stereo partly drawn) [Example 5-1, methyl ((((1 S,4R)-4-(2-amino-6-chloro-9H-purin-9-yl)cyclopent-2-en-1-yl)methoxy)(2-((3-hydroxy-2,2-dimethylpropanoyl)thio)ethoxy)phosphoryl)-L-alaninate]
< 10 | COC(=O)[C@H](C)NP(=O)(OCCSC(=O)C(C)(C)C)OC[C@@H]1C=C[C@H](n2cnc3c(OC)nc(N)nc32)C1 (stereo partly drawn) [Example 1-2-12, methyl ((((1S,4R)-4-(2-amino-6-methoxy-9H-purin-9-yl)cyclopent-2-en-1-yl)methoxy)(2-(pivaloylthio)ethoxy)phosphoryl)-L-alaninate]
1000 to 10000 | Nc1nc2c(ncn2[C@H]2C=C[C@@H](CO)C2)c(=O)[nH]1 [Example 1]
